“And” between values parts separate entries of the source, which are not always exact repeats. Equal entries are not always repeated. Where two headings read alike, the source gives them in different places.
Test system: human sebocytes
Assay: Sebum suppression: 14C-acetate label remaining in cultured human sebocytes
Format: cell-based
Settings: for activity at 1 µM / activity at 10 µM / activity at 28 µM / activity at 280 µM / activity at 0.1 µM / activity at 50 µM: Homo sapiens; for activity at 1 µM / activity at 10 µM / activity at 0.1 µM / activity at 50 µM: read-out: % of Control; for sebum suppressive activity in the presence of a retinoid / combined with retinol: summary in words, combined with retinol versus compound alone
[1] = Experiment A, 1 μM test compound + 1 μM Retinol
[2] = Experiment A, 1 μM test compound + 10 μM Retinol
[3] = Experiment A, 1 μM test compound alone
[4] = Experiment A, 10 μM test compound + 1 μM Retinol
[5] = Experiment A, 10 μM test compound + 10 μM Retinol
[6] = Experiment A, 10 μM test compound alone
[7] = Experiment B, 1 μM test compound + 1 μM Retinol
[8] = Experiment B, 1 μM test compound + 10 μM Retinol
[9] = Experiment B, 1 μM test compound alone
[10] = Experiment B, 10 μM test compound + 1 μM Retinol
[11] = Experiment B, 10 μM test compound + 10 μM Retinol
[12] = Experiment B, 10 μM test compound alone
[13] = Experiment A, 28 μM Phenol Red (positive control)
[14] = Experiment B, 280 μM Phenol Red (positive control)
[15] = Experiment B, 0.1 μM test compound + 1 μM Retinol
[16] = Experiment B, 0.1 μM test compound + 10 μM Retinol
[17] = Experiment B, 0.1 μM test compound alone

| Structure (SMILES) | activity at 1 µM [1] [%] | activity at 1 µM [2] [%] | activity at 1 µM [3] [%] | activity at 10 µM [4] [%] | activity at 10 µM [5] [%] | activity at 10 µM [6] [%] | activity at 1 µM [7] [%] | activity at 1 µM [8] [%] | activity at 1 µM [9] [%] | activity at 10 µM [10] [%] | activity at 10 µM [11] [%] | activity at 10 µM [12] [%] | sebum suppressive activity in the presence of a retinoid / combined with retinol | activity at 0.1 µM [15] [%] | activity at 0.1 µM [16] [%] | activity at 0.1 µM [17] [%] | further results |
| --- | --- | --- | --- | --- | --- | --- | --- | --- | --- | --- | --- | --- | --- | --- | --- | --- | --- |
| O=C(Nc1ccc(O)cc1)Nc1cccc(C(F)(F)F)c1 [Compound E] | 75.1 | 46.4 | 66.4 | 32 | 2.3 | 50 | 67.2 | 54.2 | 97.3 | 49.8 | 2.1 | 66.4 | improved sebum suppressive activity | – | – | – | – |
| CCOC(=O)c1ccc(NC(=O)Nc2ccc(O)cc2)cc1 [Compound F] | – | – | – | – | – | – | – | – | – | – | – | – | improved sebum suppressive activity | – | – | – | % of Control [1]: 67.3%; % of Control [2]: 65.8%; % of Control [3]: 84.7%; % of Control [4]: 66.2%; % of Control [5]: 53.7%; % of Control [6]: 82.7% |
| O=S1(=O)OC(c2ccc(O)cc2)(c2ccc(O)cc2)c2ccccc21 [Phenol Red, phenol red, reference compound] | – | – | – | – | – | – | – | – | – | – | – | – | – | – | – | – | % of Control [13]: 95.3%; % of Control [14]: 46.5% and 52.2% and 54.9% and 56.8%; activity at 28 µM [13]: 75.5%; activity at 280 µM (Experiment A, 280 μM Phenol Red (positive control)): 15.9%; activity at 28 µM (Experiment B, 28 μM Phenol Red (positive control)): 86.4%; activity at 280 µM [14]: 52.5%; activity at 280 µM (Table 7, 280 μM Phenol Red (positive control)): 13.2% |
| Cc1cccc(O)c1NC(=O)OC1CC(C)CCC1C(C)C (centres unmarked) [Compound C] | – | 66.5 | 70.1 | – | 0.2 | 0.2 | 78.2 | 68.8 | 75.3 | 0.4 | 0.4 | 0.4 | – | 94 | 88.6 | 97.9 | – |
| CC(CCC(=O)NC(=O)Nc1ccccc1Sc1ccccc1CO)C1CCC2=C3CCC4CC(O)CCC4(C)C3CC(O)C21C (centres unmarked) [Compound A] | 68.5 | 64.8 | 68.5 | 73.4 | 60.8 | 71 | 77.4 | 73.9 | 76.1 | 62.7 | 64.6 | 70.2 | – | 88.8 | 84.2 | 84.5 | – |
| Cc1cccc(N2CCN(C(=O)CC3C=CC(CC(=O)N4CCN(c5cccc(C)c5)C(C)C4)C3)CC2C)c1 (centres unmarked) [Compound G] | – | – | – | – | – | – | – | – | – | – | – | – | improved sebum suppressive activity | – | – | – | activity at 10 µM (96 Well Plate, 10 μM test compound + 1 μM Retinol): 70.3%; activity at 10 µM (96 Well Plate, 10 μM test compound alone): 102%; activity at 50 µM (96 Well Plate, 50 μM test compound + 1 μM Retinol): 3.3%; activity at 50 µM (96 Well Plate, 50 μM test compound alone): 25.5% |
| CC1=C(/C=C/C(C)=C/C=C/C(C)=C/CO)C(C)(C)CCC1 [Retinol, retinol, reference compound] | – | – | – | – | – | – | – | – | – | – | – | – | – | – | – | – | activity at 10 µM (Experiment A, 10 μM Retinol alone): 105%; activity at 1 µM (Experiment B, 1 μM Retinol alone): 98.1%; activity at 10 µM (Experiment B, 10 μM Retinol alone): 106%; activity at 1 µM (Table 7, 1 μM Retinol alone): 98.1%; activity at 10 µM (Table 7, 10 μM Retinol alone): 106% |
| CC(CCC(=O)N1CCN(c2ccccc2)CC1)C1CCC2=C3CCC4CC(O)CCC4(C)C3CC(O)C21C (centres unmarked) [Compound B] | 80 | 66.2 | 88.1 | 8.7 | 7.2 | 25.6 | 69.1 | 69.9 | 68 | 0.3 | 0.3 | 0.3 | – | 81.7 | 84.8 | 87.9 | – |

Source: patent publication US20020028224A1, “Cosmetic compositions containing substituted amide derivatives” (Unilever Home & Personal Care USA, Division of Conopco, Inc., priority 2000, published 2002)
